Tests used:
Assay in all cases: relative viability (nuclei count vs DMSO), 5 days (fraction); higher = more cells survive
[1] = system: 201T
Summary of the method: (§1)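 Relative viability divides the nuclei count in treated wells by that in vehicle wells. Lung cancer cell lines were seeded in 1536-well plates, dosed by pin tool the next day, and fixed and stained after 5 days in one step with final 0.05% Triton X-100, 1% formaldehyde and 1 ug/ml Hoechst. Dosing was a single drug or a fixed anchor-drug dose plus five library-drug doses (not always all listed) in √10 steps, and values are medians of duplicate plates imaged at 4×.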

[2] = system: BEN
Summary of the method: as §1

[3] = system: EMC-BAC-2
Summary of the method: as §1

[4] = system: HARA
Summary of the method: as §1

[5] = system: HCC-44
Summary of the method: as §1

[6] = system: LOU-NH91
Summary of the method: as §1

[7] = system: NCI-H1395
Summary of the method: as §1

[8] = system: NCI-H1666
Summary of the method: as §1

[9] = system: NCI-H1993
Summary of the method: as §1

[10] = system: NCI-H2009
Summary of the method: as §1

[11] = system: NCI-H2023
Summary of the method: as §1

[12] = system: NCI-H2087
Summary of the method: as §1

[13] = system: NCI-H2126
Summary of the method: as §1

[14] = system: NCI-H2347
Summary of the method: as §1

[15] = system: NCI-H23
Summary of the method: as §1

[16] = system: NCI-H3122
Summary of the method: as §1

[17] = system: NCI-H596
Summary of the method: as §1

[18] = system: NCI-H647
Summary of the method: as §1

[19] = system: NCI-H650
Summary of the method: as §1

[20] = system: NCI-H727
Summary of the method: as §1

[21] = system: NCI-H838
Summary of the method: as §1

COc1cc(N2CCC(C(N)=O)CC2)ccc1Nc1nc(N)c(Cl)c(Nc2ccccc2S(=O)(=O)C(C)C)n1 [HG-5-88-01] + CS(=O)(=O)CCNCc1ccc(-c2ccc3ncnc(Nc4ccc(OCc5cccc(F)c5)c(Cl)c4)c3c2)o1 [Lapatinib] (partner 2 µM)
relative viability ([1]; first compound 0.04 µM): 1.03 | relative viability ([1]; first compound 0.1265 µM): 0.922 | relative viability ([1]; first compound 0.4 µM): 1.01 | relative viability ([1]; first compound 1.265 µM): 1.07 | relative viability ([1]; first compound 4 µM): 1.14 | relative viability ([2]; first compound 0.04 µM): 0.817 | relative viability ([2]; first compound 0.1265 µM): 0.743 | relative viability ([2]; first compound 0.4 µM): 0.66 | relative viability ([2]; first compound 1.265 µM): 0.586 | relative viability ([2]; first compound 4 µM): 0.545 | relative viability ([3]; first compound 0.04 µM): 0.928 | relative viability ([3]; first compound 0.1265 µM): 0.93 | relative viability ([3]; first compound 0.4 µM): 0.802 | relative viability ([3]; first compound 1.265 µM): 0.906 | relative viability ([3]; first compound 4 µM): 0.684 | relative viability ([4]; first compound 0.04 µM): 0.754 | relative viability ([4]; first compound 0.1265 µM): 0.528 | relative viability ([4]; first compound 0.4 µM): 0.671 | relative viability ([4]; first compound 1.265 µM): 0.71 | relative viability ([4]; first compound 4 µM): 0.31 | relative viability ([5]; first compound 0.04 µM): 0.978 | relative viability ([5]; first compound 0.1265 µM): 0.987 | relative viability ([5]; first compound 0.4 µM): 0.845 | relative viability ([5]; first compound 1.265 µM): 1.04 | relative viability ([5]; first compound 4 µM): 0.669 | relative viability ([6]; first compound 0.04 µM): 0.743 | relative viability ([6]; first compound 0.1265 µM): 0.673 | relative viability ([6]; first compound 0.4 µM): 0.594 | relative viability ([6]; first compound 1.265 µM): 0.592 | relative viability ([6]; first compound 4 µM): 0.608 | relative viability ([7]; first compound 0.04 µM): 0.933 | relative viability ([7]; first compound 0.1265 µM): 1 | relative viability ([7]; first compound 0.4 µM): 1.12 | relative viability ([7]; first compound 1.265 µM): 1.05 | relative viability ([7]; first compound 4 µM): 0.83 | relative viability ([8]; first compound 0.04 µM): 0.742 | relative viability ([8]; first compound 0.1265 µM): 0.742 | relative viability ([8]; first compound 0.4 µM): 0.5 | relative viability ([8]; first compound 1.265 µM): 0.463 | relative viability ([8]; first compound 4 µM): 0.293 | relative viability ([9]; first compound 0.04 µM): 0.713 | relative viability ([9]; first compound 0.1265 µM): 0.853 | relative viability ([9]; first compound 0.4 µM): 0.843 | relative viability ([9]; first compound 1.265 µM): 0.79 | relative viability ([9]; first compound 4 µM): 0.788 | relative viability ([10]; first compound 0.04 µM): 0.943 | relative viability ([10]; first compound 0.1265 µM): 1.01 | relative viability ([10]; first compound 0.4 µM): 0.843 | relative viability ([10]; first compound 1.265 µM): 0.939 | relative viability ([10]; first compound 4 µM): 0.433 | relative viability ([11]; first compound 0.04 µM): 0.926 | relative viability ([11]; first compound 0.1265 µM): 1.32 | relative viability ([11]; first compound 0.4 µM): 0.573 | relative viability ([11]; first compound 1.265 µM): 0.708 | relative viability ([11]; first compound 4 µM): 0.335 | relative viability ([12]; first compound 0.04 µM): 1.01 | relative viability ([12]; first compound 0.1265 µM): 0.988 | relative viability ([12]; first compound 0.4 µM): 0.989 | relative viability ([12]; first compound 1.265 µM): 0.899 | relative viability ([12]; first compound 4 µM): 0.735 | relative viability ([13]; first compound 0.04 µM): 0.649 | relative viability ([13]; first compound 0.1265 µM): 0.712 | relative viability ([13]; first compound 0.4 µM): 0.706 | relative viability ([13]; first compound 1.265 µM): 0.726 | relative viability ([13]; first compound 4 µM): 0.45 | relative viability ([14]; first compound 0.04 µM): 1.02 | relative viability ([14]; first compound 0.1265 µM): 0.947 | relative viability ([14]; first compound 0.4 µM): 0.896 | relative viability ([14]; first compound 1.265 µM): 1.01 | relative viability ([14]; first compound 4 µM): 0.887 | relative viability ([15]; first compound 0.04 µM): 1.05 | relative viability ([15]; first compound 0.1265 µM): 1.23 | relative viability ([15]; first compound 0.4 µM): 0.874 | relative viability ([15]; first compound 1.265 µM): 1.05 | relative viability ([15]; first compound 4 µM): 0.393 | relative viability ([16]; first compound 0.04 µM): 0.763 | relative viability ([16]; first compound 0.1265 µM): 0.357 | relative viability ([16]; first compound 0.4 µM): 0.281 | relative viability ([16]; first compound 1.265 µM): 0.221 | relative viability ([16]; first compound 4 µM): 0.2 | relative viability ([17]; first compound 0.04 µM): 0.956 | relative viability ([17]; first compound 0.1265 µM): 1.03 | relative viability ([17]; first compound 0.4 µM): 1.06 | relative viability ([17]; first compound 1.265 µM): 1.12 | relative viability ([17]; first compound 4 µM): 0.781 | relative viability ([18]; first compound 0.04 µM): 0.929 | relative viability ([18]; first compound 0.1265 µM): 1.23 | relative viability ([18]; first compound 1.265 µM): 1.11 | relative viability ([18]; first compound 4 µM): 1.21 | relative viability ([19]; first compound 0.04 µM): 0.962 | relative viability ([19]; first compound 0.1265 µM): 1.01 | relative viability ([19]; first compound 0.4 µM): 1.14 | relative viability ([19]; first compound 1.265 µM): 0.943 | relative viability ([19]; first compound 4 µM): 0.475 | relative viability ([20]; first compound 0.04 µM): 0.834 | relative viability ([20]; first compound 0.1265 µM): 0.93 | relative viability ([20]; first compound 0.4 µM): 0.669 | relative viability ([20]; first compound 1.265 µM): 0.583 | relative viability ([20]; first compound 4 µM): 0.39 | relative viability ([21]; first compound 0.04 µM): 0.906 | relative viability ([21]; first compound 0.1265 µM): 0.952 | relative viability ([21]; first compound 0.4 µM): 0.797 | relative viability ([21]; first compound 1.265 µM): 0.708 | relative viability ([21]; first compound 4 µM): 0.498
